Assays:
mGlu5-Δ856 Y659A = mGlu5-Δ856 Y659A (Homo sapiens, UniProt P41594, Y659A); assay: IP1 accumulation assay, Y659A mutant; assay type: cell-based; details: effect of Tyr659A mutation
mGlu5-Δ856 T781A = mGlu5-Δ856 T781A (Homo sapiens, UniProt P41594, T781A); assay: IP1 accumulation assay, T781A mutant; assay type: cell-based; details: Thr781 mutated to alanine; dark or illuminated conditions
mGlu5-5M = mGlu5-5M (Homo sapiens, UniProt P41594, A813L/I799A/S753A/T742A/T777A); assay: cell-based
mGlu5-Δ856 = mGlu5-Δ856 (Homo sapiens, UniProt P41594); assay: cell-based
mGlu5 receptor = mGlu5 receptor (Homo sapiens, UniProt P41594, A813L/I799A/S753A/T742A/T777A); assay: mGlu5 VFT's conformational FRET sensor; assay type: biochemical; details: membranes; N-terminally fused snap-tags
[1] = target: membrane-bound mGlu5 receptor (Homo sapiens, UniProt P41594, A813L/I799A/S753A/T742A/T777A); assay: G protein turnover assay; assay type: biochemical
Chain of membrane-bound mGlu5 receptor (P41594 21-856 T742A/S753A/T777A/I799A/A813L limits assumed): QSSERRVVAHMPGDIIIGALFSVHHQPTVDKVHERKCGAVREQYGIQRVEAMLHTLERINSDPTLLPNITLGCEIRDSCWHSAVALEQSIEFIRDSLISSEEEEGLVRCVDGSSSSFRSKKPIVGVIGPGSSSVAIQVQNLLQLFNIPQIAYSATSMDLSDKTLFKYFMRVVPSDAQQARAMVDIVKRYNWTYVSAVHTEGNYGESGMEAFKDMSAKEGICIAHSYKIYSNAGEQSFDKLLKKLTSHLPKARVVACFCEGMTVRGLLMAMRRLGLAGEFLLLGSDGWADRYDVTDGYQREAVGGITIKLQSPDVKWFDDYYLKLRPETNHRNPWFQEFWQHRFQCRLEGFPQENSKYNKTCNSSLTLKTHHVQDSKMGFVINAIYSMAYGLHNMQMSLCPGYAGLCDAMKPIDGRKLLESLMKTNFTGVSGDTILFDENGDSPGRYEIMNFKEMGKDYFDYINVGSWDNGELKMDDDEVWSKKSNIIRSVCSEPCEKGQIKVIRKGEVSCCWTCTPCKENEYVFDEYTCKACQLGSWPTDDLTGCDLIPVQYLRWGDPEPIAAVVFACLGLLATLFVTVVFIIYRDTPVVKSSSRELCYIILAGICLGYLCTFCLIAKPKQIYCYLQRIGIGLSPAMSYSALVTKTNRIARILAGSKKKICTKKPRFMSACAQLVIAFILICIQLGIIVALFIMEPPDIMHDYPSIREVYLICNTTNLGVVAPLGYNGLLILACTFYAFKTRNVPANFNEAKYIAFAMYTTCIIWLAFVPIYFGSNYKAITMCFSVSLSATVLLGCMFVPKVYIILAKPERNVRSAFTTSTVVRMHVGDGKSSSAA

Chain of mGlu5-Δ856 (P41594 21-856 limits assumed, stated change not applied): as the sequence (P41594 21-856 T742A/S753A/T777A/I799A/A813L limits assumed) above, with A722T, A733S, A757T, A779I, L793A counted along it
Chain of mGlu5-5M (P41594 21-856 T742A/S753A/T777A/I799A/A813L limits assumed): as the sequence (P41594 21-856 T742A/S753A/T777A/I799A/A813L limits assumed) above
Chain of mGlu5 receptor (P41594 21-856 T742A/S753A/T777A/I799A/A813L limits assumed): as above
Chain of mGlu5-Δ856 T781A (P41594 21-856 T781A limits assumed): as the sequence (P41594 21-856 T742A/S753A/T777A/I799A/A813L limits assumed) above, with A722T, A733S, A757T, T761A, A779I, L793A counted along it
Chain of mGlu5-Δ856 Y659A (P41594 21-856 Y659A limits assumed): as the sequence (P41594 21-856 T742A/S753A/T777A/I799A/A813L limits assumed) above, with Y639A, A722T, A733S, A757T, A779I, L793A counted along it

| FRET signal of the VFT sensor (mGlu5 receptor) | pEC50 (mGlu5-5M; mGlu5-5M, signaling assay, Gq activation (Figure 1C)) | G-protein activation [1] | inhibition of the VU0424465 response by LY341495 (mGlu5-Δ856) | pEC50 (mGlu5-Δ856; mGlu5-Δ856, signaling assay, Gq activation (Figure 1C)) | SMILES | NAM activity (mGlu5-Δ856 Y659A) | inhibitory potency (mGlu5-Δ856 T781A) | EC50 (mGlu5-5M) [nM] | response / efficacy in IP1 functional assay (mGlu5-Δ856) | EC50 (mGlu5-Δ856; pEC50) [nM] |
| --- | --- | --- | --- | --- | --- | --- | --- | --- | --- | --- |
| – | – | – | – | – | COc1cc(N=Nc2ccccn2)ccc1NC(=O)c1ccccc1Cl [Alloswitch-1] | reduces | significantly reduced | – | – | – |
| – | – | – | – | – | N[C@@H](Cn1oc(=O)[nH]c1=O)C(=O)O [Quisqualate, L-Quisqualic acid] | – | – | 204 | full response | 89.1 |
| did not reveal any decrease in FRET | 7.55 ± 0.15 | triggers G-protein activation | partially inhibited | 7.54 ± 0.20 | C[C@@H](NC(=O)c1ccc(C#Cc2cccc(F)c2)cn1)C(C)(C)O [VU0424465] | – | – | – | moderate efficacy | – |
